Data taken from US20250064090A1 (priority 2020, published 2025).
Read-outs that look alike come from different tables or passages of the source.

Tests used:
[1] = system: E. coli strains HT-99 (donor) and J53R (receptor); assay type: cell-based, Escherichia coli; conditions: for Class of ingredient by conjugation frequency compared to control (in words): single ingredient, 100 mg/L, from Table 1
HT99 or J53R cells = assay type: cell-based, E. coli

SMILES: Cc1ccc(C(C)C)cc1O [Carvacrol, carvacrol]
- Conjugation frequency [1]: 0.0052
- Conjugation frequency ([1]; 3 hours, 37° C.): 0.0044
- Class of ingredient by conjugation frequency compared to control (in words) [1]: conjugation enhancers

SMILES: O=CC=Cc1ccccc1 [Cinnamaldehyde, cinnamaldehyde]
- Conjugation frequency [1]: 0.0014
- Conjugation frequency ([1]; 3 hours, 37° C.): 0.0011
- Conjugation compared to control (in words) ([1]; result in words): not affected
- Class of ingredient by conjugation frequency compared to control (in words) [1]: conjugation inert ingredient

SMILES: CC(C)=CCCC(C)=CC=O [Citral, citral]
- Conjugation frequency ([1]; 3 hours, 37° C.): 0.0023
- Conjugation frequency ([1]; citral alone or mixed with conjugation inhibitors (100 mg of each per mL stock, 10 μL in 10 mL), control 0.0014): 0.0028
- Class of ingredient by conjugation frequency compared to control (in words) [1]: conjugation enhancers

SMILES: C=CC(C)(O)CCC=C(C)C (stereo not drawn) [Linalool, linalool]
- Conjugation frequency ([1]; 3 hours, 37° C.): 0.00085
- Class of ingredient by conjugation frequency compared to control (in words) [1]: conjugation inhibitors

SMILES: CCCCCCCC/C=C\CCCCCCCC(=O)O [Oleic acid, oleic acid]
- expression of the yqfA gene (hemolysin III family protein) (HT99 or J53R cells): reduced
- fatty acid biosynthesis (fabB) gene expression upon treatment with oleic acid (HT99 or J53R cells): inhibition
- fatty acid degradation (fadB) gene expression upon treatment with oleic acid (HT99 or J53R cells): inducing
- Conjugation frequency ([1]; 3 hours, 37° C.): 0.00011
- Class of ingredient by conjugation frequency compared to control (in words) [1]: conjugation inhibitors

SMILES: O=C(OC[C@H]1O[C@@H](OC(=O)c2cc(O)c(O)c(OC(=O)c3cc(O)c(O)c(O)c3)c2)[C@H](OC(=O)c2cc(O)c(O)c(OC(=O)c3cc(O)c(O)c(O)c3)c2)[C@@H](OC(=O)c2cc(O)c(O)c(OC(=O)c3cc(O)c(O)c(O)c3)c2)[C@@H]1OC(=O)c1cc(O)c(O)c(OC(=O)c2cc(O)c(O)c(O)c2)c1)c1cc(O)c(O)c(OC(=O)c2cc(O)c(O)c(O)c2)c1 [Tannic acid, tannic acid]
- Conjugation frequency ([1]; 3 hours, 37° C.): 0.00007
- Class of ingredient by conjugation frequency compared to control (in words) [1]: conjugation inhibitors

SMILES: Cc1ccc(C(C)C)c(O)c1 [Thymol, thymol]
- Conjugation frequency ([1]; 3 hours, 37° C.): 0.0019
- Class of ingredient by conjugation frequency compared to control (in words) [1]: conjugation enhancers
